Test system: human liver cytosol stability, half-life
Experiment: NCATS Human Liver Cytosol Stability Profiling
Conditions: higher = more stable
Procedure: Assay submitter (PI): Pranav Shah Ph.D.
NIH Center for Advancing Translational Sciences
Over the last few decades, chemists have become skilled at designing compounds that avoid cytochrome P (CYP) 450 mediated metabolism. Typical screening assays are performed in liver microsomal fractions and it is possible to overlook the contribution of cytosolic enzymes until much later in the drug discovery process. Few data exist on cytosolic enzyme-mediated metabolism and no reliable tools are available to chemists to help design away from such liabilities. In this study, we screened 1450 compounds for liver cytosol-mediated metabolic stability and extracted transformation rules that might help medicinal chemists in optimizing compounds with these liabilities. […] Matched molecular pairs analysis was performed in conjunction with qualitative-structure activity relationship modeling to identify chemical structure transformations affecting cytosolic stability. The transformation rules were prospectively validated on the test set. In addition, selected rules were validated on a diverse chemical library and the resulting pairs were experimentally tested to confirm whether the identified transformations could be generalized. The validation results, comprising nearly 250 library compounds and corresponding half-life data, are made publicly available. The datasets were also used to generate in silico classification models, based on different molecular descriptors and machine learning methods, to predict cytosol-mediated liabilities. To the best of our knowledge, this is the first systematic in silico effort to address cytosolic enzyme-mediated liabilities (Shah 2020).
Shah, P., Siramshetty, V.B., Zakharov, A.V. et al. Predicting liver cytosol stability of small molecules. J Cheminform 12, 21 (2020). https://doi.org/10.1186/s13321-020-00426-7
Compounds are classified as unstable (t 1/2 < 30 min) or stable (t 1/2 > 30 min).
1. Shah, P. et al. An Automated High-Throughput Metabolic Stability Assay Using an Integrated High-Resolution Accurate Mass Method and Automated Data Analysis Software. Drug Metab Dispos 44, 1653-1661 (2016). PMID 27417180

| half-life [h] | SMILES |
| --- | --- |
| > 2 | CC1(c2ccccc2)N(Cc2ccccc2)C(=O)OC12CCN(Cc1ccc(C(=O)O)cc1)CC2 (configuration not stated) |
| > 2 | N#Cc1cccc(-c2cn3c(n2)N(C(=O)c2cccs2)CCC3)c1 |
| 0.308 | Cc1ccsc1-c1[nH]nc2ncc(-c3ccccc3)nc12 |
| 0.36 | COc1ccc(CN2CC(Oc3ccc(F)c(C)c3)C2)cc1 |
| > 2 | N#Cc1ccc(C(=O)N2CCCOCCNC(=O)CC2)cc1 |
| 1.97 | COc1cccc(CN2CC[C@H](c3nnc(-c4ccco4)o3)C2)c1 |
| > 2 | COCCNC(=O)c1nc2sccn2c1-c1cccc(OC)c1 |
| > 2 | O=C1COCCN1c1cc(-c2cccc(F)c2)cn2cncc12 |
| 0.44 | Fc1cccc(-c2noc(-c3nc(-c4ccncc4)no3)n2)c1 |
| > 2 | CCOc1cc(=O)n2c(c1C(=O)Nc1ccc(S(N)(=O)=O)cc1)CCCC2 |
| > 2 | CN1c2cc(C(=O)Nc3ccc(C#N)cc3)ccc2C(=O)N2CCCCC21 (configuration not stated) |
| > 2 | O=C(O)c1ccc2c(c1)n(Cc1cccc(F)c1)c(=O)c1ccnn12 |
| 1.59 | N#Cc1cccc(-c2c(C(=O)NC3CC3)nc3sccn23)c1 |
| > 2 | COC(=O)[C@@H]1Cc2ncn(C)c2CN1C(=O)c1ccc(C#N)cc1 |
| > 2 | O=C(O)c1ccc(CN2CC(COc3ccccc3)C3(C2)CN(c2ccccc2)C3)cc1 (configuration not stated) |
| 1.86 | COc1cccc(-c2cn3c(n2)N(C(=O)c2ccoc2)CCC3)c1 |
| 1.58 | N#Cc1cccc(CN2CCOC[C@H]2c2ncc(-c3ccc(F)cc3)[nH]2)c1 |
| > 2 | Fc1cccc(Nc2ncc(-c3cncnc3)c3c2OCC3)c1 |
| > 2 | COc1ccc(CN2CC[C@H](c3nnc(C)o3)C2)cc1 |
| > 2 | N#Cc1ccc(C(=O)N2CCOC[C@H](Oc3cnccn3)C2)cc1 |
| 0.605 | COc1ccc(CN2CC(Oc3ccc(F)cc3F)C2)cc1 |

| half-life [h] | SMILES |
| --- | --- |
| 0.847 | O=C(NCCCn1ccnc1)c1ccc(-c2ncc3cnc(-c4cccc(F)c4)cn23)cc1 |
| > 2 | C[C@@]1(O)CCN(Cc2ccc(C#N)cc2)C[C@H]1N1CCCC1 |
| > 2 | CN1c2cc(C(=O)Nc3ccc(S(N)(=O)=O)cc3)ccc2C(=O)N2CCCCC21 (configuration not stated) |
| 1.38 | O=C(c1ccsc1)N1CCC(Oc2cccc(F)c2)C1 (configuration not stated) |
| > 2 | O=C(N1CCN([S+](=O)([O-])c2ccccc2)CC1)N1CC2CC(C1)[C@H]1CCCC(=O)N1C2 (some centres not stated) |
| > 2 | N#Cc1cccc(CN2CC[C@H](c3nnc(-c4ccco4)o3)C2)c1 |
| 1.19 | N#Cc1ccc(CN2CC(Oc3ccc(F)c(F)c3)C2)cc1 |
| > 2 | N#Cc1cccc(-c2c(C(=O)N3CCOCC3)nc3sccn23)c1 |
| > 2 | CN1CCOC2(CCN(Cc3cccc(C#N)c3)CC2)C1=O |
| > 2 | COc1ccccc1-c1[nH]nc2ncc(-c3cccc(F)c3)nc12 |
| > 2 | COc1ccccc1CN1CCC2(CC1)CC(O)CCO2 (configuration not stated) |
| 1.34 | COc1cncc(Nc2ncc(-c3cccc(F)c3)c3c2OCC3)c1 |
| 1.72 | N#Cc1cccc(-c2c(C(=O)N3CCCCC3)nc3sccn23)c1 |
| > 2 | N#Cc1cccc(-c2cn3c(n2)N(C(=O)c2ccoc2)CCC3)c1 |
| 0.957 | N#Cc1cccc(CN2C[C@@H](CO)[C@H](c3ccccn3)C2)c1 |
| 1.69 | CCOc1cc(=O)n2c(c1C(=O)Nc1ccc(C#N)cc1)CCCC2 |
| 1.33 | CC(=O)N1CCC(Cc2ccc(C(=O)NC3CC3)cc2)CC1 |
| 1.79 | CC(C)CN1C(=O)c2cccn2CC1C(=O)N1CCN(C)CC1 (configuration not stated) |
| > 2 | CC(=O)N1CCC(Cc2ccc(C(=O)O)cc2)CC1 |
| 0.667 | O=C(c1ccsc1)N1CCC(Oc2ccccc2)C1 (configuration not stated) |

| SMILES | half-life [h] |
| --- | --- |
| CN1CCN(C(=O)Cc2cccn2-c2ccc(F)cc2)CC1 | > 2 |
